Laboratory results: patent publication US20030091557A1, “Methods and compositions for modulating ACE-2 activity” (priority 2001, published 2003)
“Also recorded” adds a separate entry of the source.

Experiments:
[1] = tested on: isolated aortic vascular rings; test: Developed isometric tension of isolated aortic vascular rings; set-up: species or system rat
Source text: FIG. 1. Synergistic effects of Angiotensin 1-9 (A1-9) on angiotensin II (AII)-induced vasoconstriction, representative experiment (experiment 9 from Table 3). Data are presented as the mean percentage of the maximal contractile response as defined by full KCl depolarization following treatment with angiotensin peptides for four separate rings used to determine average response at each concentration. Generated tension was plotted against peptide concentration and the resulting concentration-response curves were subjected to regression analysis to determine whether the effects of the combination of A1-9 and angiotensin II produced additivity or synergy.
The effects of graded doses of A1-9 (Fields et al., Peptide Research 4: 95-101 (1991)) or A1-10 (substrate control) alone or in combination (Tallarida, Drug Synergism and Dose-Effect Data Analysis, Chapman and Hall/CRC, New York (2000), Tallarida et al., Life Science 61: PL417-425 (1997)) with angiotensin II were examined on isolated aortic vascular rings developed tension in response to vasoactive substances. Aortas were removed from mature male Sprague-Dawley rats, cleared of connective tissue, and cut into 1 mm rings. Rings were mounted to an isometric force transducer and placed in Krebs-Henseleit solution bubbled with 95% O2/5% CO2 at 37° C. Rings were exposed to a 2 g preload, relaxed and then exposed to various concentrations of angiotensin peptides alone or in combination. Following angiotensin peptide dosing, rings were fully constricted with KCl to determine the maximum degree of vasoconstriction.

[2] = tested on: awake, free-ranging Sprague-Dawley rats; test: Arterial pressure in awake, free-ranging Sprague-Dawley rats, intravenous infusion; assay type: in vivo; conditions: awake rat
Method: FIG. 2. The effect of A1-9 on (A) mean arterial pressure ±SEM in the awake and freely-ranging rat (n=6 rats). Average mean arterial and pulse pressure as well as heart rate data were derived from the last 5 min of a 20 min continuous intravenous infusion period. * indicates a significant difference compared to vehicle-treated rats following analysis of variance and Dunnett's post-hoc test. A1-9 or angiotensin II (AII) continuous infusion doses are in μg/kg/min.
FIG. 3. The effect of A1-9 on angiotensin II-mediated pressor responses in normotensive awake male rats. Data are reported as average mean arterial pressure ±SEM (n=6 rats).
To investigate the effects of A1-9 on arterial pressure, A1-9 was administered to awake, free-ranging Sprague-Dawley rats via indwelling intravenous and arterial catheters. Intravenous infusion of A1-9 (1-3 μg/kg/min) in the awake rat produced a dose-dependent tonic increase in mean arterial pressure to a maximum of approximately 30 mmHg (FIG. 2). […] These responses seen with A1-9 were similar in magnitude to those induced by angiotensin II.
To examine any interactions induced by coadministration of A1-9 and angiotensin II, arterial pressure was monitored in the awake rat after they received either A1-9 (1 μg/kg/min) or saline coinfused with angiotensin II (1-100 ng/kg/min).

ACE-2 = ACE-2 (Homo sapiens, UniProt Q9BYF1); conditions: cited from earlier work
Chain of ACE-2 (Q9BYF1 18-805): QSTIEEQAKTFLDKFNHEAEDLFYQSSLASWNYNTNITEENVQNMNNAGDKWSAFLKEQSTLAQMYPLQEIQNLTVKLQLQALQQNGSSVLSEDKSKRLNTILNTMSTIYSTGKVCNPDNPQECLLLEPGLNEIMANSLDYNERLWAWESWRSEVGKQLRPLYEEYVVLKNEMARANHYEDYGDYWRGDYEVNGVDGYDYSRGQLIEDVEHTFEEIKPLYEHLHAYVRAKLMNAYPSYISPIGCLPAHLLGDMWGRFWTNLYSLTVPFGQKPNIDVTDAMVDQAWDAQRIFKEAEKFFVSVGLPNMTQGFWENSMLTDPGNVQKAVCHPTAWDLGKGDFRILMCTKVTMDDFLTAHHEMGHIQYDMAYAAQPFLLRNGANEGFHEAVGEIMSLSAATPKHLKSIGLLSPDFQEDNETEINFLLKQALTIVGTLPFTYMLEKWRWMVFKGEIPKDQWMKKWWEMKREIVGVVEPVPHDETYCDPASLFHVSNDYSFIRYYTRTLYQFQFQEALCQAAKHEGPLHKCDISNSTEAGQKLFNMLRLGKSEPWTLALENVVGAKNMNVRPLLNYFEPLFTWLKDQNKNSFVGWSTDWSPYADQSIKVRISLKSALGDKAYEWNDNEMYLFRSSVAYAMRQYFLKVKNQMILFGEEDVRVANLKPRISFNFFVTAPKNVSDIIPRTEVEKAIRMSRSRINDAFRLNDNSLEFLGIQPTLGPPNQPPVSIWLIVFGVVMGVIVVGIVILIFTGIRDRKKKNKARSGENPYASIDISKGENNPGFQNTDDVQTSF

Compound | potentiation of angiotensin II-mediated vasoconstriction ([1]; combined with angiotensin II, rat aortic rings) | maximum tension developed / effect on vascular tone, peptide alone ([1]; rat aortic rings) | factor by which relative potency of angiotensin II was increased beyond simple addition ([1]; shift of angiotensin II dose-effect curve by A1-9, rat aortic rings, FIG. 1) | effect on pressor response elicited by angiotensin II ([2]; coinfused with angiotensin II (1-100 ng/kg/min), A1-9 at 1 μg/kg/min) | increase in mean arterial pressure, maximum ([2]; intravenous infusion 1-3 μg/kg/min) | blockade of ACE-2 formation of A1-9 from angiotensin I (ACE-2)
angiotensin 1-9 (DRVYIHPFH; Angiotensin 1-9; UniProt P01019 25-33, looked up) [A1-9, nonapeptide formed by removal of the C-terminal leucine from angiotensin I] | superadditive or synergistic interaction | no effect on vascular tone; also recorded: minimal | 11.6 (95% confidence limits of 3.02-44.7) | potentiated the pressor response elicted by angiotensin II in an additive fashion | approximately 30 mmHg | 
C[C@H](CS)C(=O)N1CCC[C@H]1C(=O)O [captopril] |  |  |  |  |  | not blocked
